# Experimental data taken from publication PMC12442009, “Self-Assembling Cyclic Peptide Nanotubes for the Delivery of Doxorubicin into Drug-Resistant Cancer Cells” (ACS Applied Materials & Interfaces, 2025).
# Read-outs that look alike come from different tables or passages of the source. Square brackets hold non-standard residues; d marks the D form. Peptide text beside a SMILES is read from it. * marks the point of attachment. X1 = COc1cccc2c1C(=O)c1c(O)c3c(c(O)c1C2=O)C[C@@](O)(C(CO)=NNC(=O)CCCCCN1C(=O)CC(*)C1=O)C[C@@H]3O[C@H]1C[C@H](N)[C@H](O)[C@H](C)O1; Pra = C#CC[C@H](N)C(=O)O
# Tests used:
# [1] = tested on: MCF-7 (breast cancer cell line); assay: MTT cell growth inhibition, MCF-7; type: cell-based; conditions: for E max (% inhibition): inhibition at highest concentration tested (100 μM), triplicate points
# Description: (§1) The cell growth inhibition of each compound was evaluated using the MTT (3-[4,5-dimethylthiazol-2-yl]-2,5-diphenyltetrazolium bromide) assay. MCF-7 and MRC-5 cells were grown on a Minimum Essential Medium Eagle, while NCI-H460 and NCI/ADR-RES cells were grown on RPMI 1640 culture medium. All culture mediums were supplemented with 10% FBS (fetal bovine serum) and 1% penicillin-streptomycin-glutamine mix. […] MCF-7 (100,000 cells/mL), NCI-H460 (150,000 cells/mL), NCI/ADR-RES (150,000 cells/mL), or MRC-5 (100,000 cells/mL) cells were seeded the day before in sterile 96-well plates (100 μL/well). Then, cells were incubated with each concentration of the compound (100 μL/well) for the specified time for each cell line. The compounds were previously dissolved in DMSO and diluted at the time of the experiment with complete medium to the concentration to be tested. The DMSO content of each well was maintained at less than 1%. All concentrations were carried out with triplicate points, and controls with DMSO at the same proportion in which the compounds were dissolved were included in all experiments. After the incubation time, the samples were removed, and 100 μL of complete medium with 0.5 mg/mL MTT was added to each well. Cells were incubated for 4 h, and the medium was removed. The resulting formazan crystals were dissolved in DMSO (100 μL/well). The absorbance of each well at 595 nm was acquired with a Tecan Infinite F200Pro plate reader. A blank subtraction was performed (cells treated with Triton X-100), and the data were normalized to the value of the untreated cells (100% viability). Data were analyzed with GraphPad Prism software.
# [2] = tested on: NCI-H460 (lung cancer cell line); conditions: for E max (% inhibition): inhibition at highest concentration tested (100 μM)
# Description: as §1
# NCI/ADR-RES cells [3] = assay: Confocal microscopy internalization and colocalization; conditions: 50 μM, 2 h
# [4] = Hydrazone stability / DOX release followed by mass spectrometry; type: physicochemical; conditions: 200 μM; for stability (DOX release) at pH 5.0: pH 5.0 (10 mM citrate buffer), followed over 72 h; for stability (DOX release) at physiological pH: pH 7.0 (H2O), 72 h
# [5] = tested on: NCI/ADR-RES (doxorubicin-resistant ovarian cancer cell line); assay: MTT cell growth inhibition, NCI/ADR-RES; type: cell-based; conditions: for E max (% inhibition): inhibition at highest concentration tested (100 μM)
# Description: as §1
# NCI/ADR-RES cells [6] = assay: Cell uptake by RP-HPLC of cell lysates; conditions: 100 μM, 120 min, 37 °C minus 4 °C, ACN/H2O extraction, RP-HPLC 460 nm, normalized vs initial concentration incubated
# Description: NCI/ADR-RES cells (10^6) were seeded in T-25 Flasks. After 24 h, the medium was removed, and a solution of DOX or CP1T NBD -DOX (100 μM) in culture medium (7 mL) was added. The cells were incubated for 120 min at 37 °C under a CO2 atmosphere (5%). Then, the medium was removed, and the cells were washed with cold PBS (3 × 3 mL). After washing, a mixture of ACN/H2O (1.5 mL, 80:20) was added to the flask and incubated overnight at 4 °C. Solvent samples were transferred to 1.5 mL Eppendorf and centrifuged at 12,000 g for 15 min at 4 °C, and the supernatant was evaporated to dryness. Analogous experiments were carried out by incubating the compounds at 4 °C for 120 min to determine the nonspecific binding to the cell membrane, since the uptake is decreased at this temperature. To evaluate the efficiency of solvent extraction, 10^6 cells were seeded in a T-25 Flask. […] The resulting lysates were analyzed by RP-HPLC by dissolving the Eppendorf samples in an aqueous solution of TFA (1%, 100 μL). All of the intracellular compound quantities were calculated from the detected area and divided by the efficiency of solvent extraction. Cell uptake was calculated by subtracting the intracellular compound quantity from the assay carried out at 37 °C from the quantity obtained at 4 °C and normalized to 100% vs the initial concentration incubated.
# [7] = tested on: MRC-5 (human embryonic lung cell line); assay: MTT cytotoxicity in noncancerous fibroblasts MRC-5; type: cell-based; conditions: MRC-5 fibroblasts, 7 days incubation
# [8] = tested on: NCI-H460 (lung cancer cell line); assay: cells; conditions: Homo sapiens, NCI-H460, 48 h
# Description: as §1
# [9] = MCF-7, 96 h incubation, MTT, 50% growth inhibition, calculated only if E max > 50%, read-out: IC50
# [10] = NCI-H460, 48 h incubation, MTT, calculated only if E max > 50%
# [11] = NCI/ADR-RES, 72 h incubation, MTT
# [12] = NCI/ADR-RES, 48 h incubation, MTT, calculated only if E max > 50%, read-out: IC50
# [13] = NCI/ADR-RES, 72 h incubation, MTT, calculated only if E max > 50%, read-out: IC50
# [14] = NCI/ADR-RES, 48 h incubation, MTT
smiles,measurement,setting,value
C#CC[C@@H]1NC(=O)[C@@H](Cc2c[nH]c3ccccc23)NC(=O)[C@H](CO)NC(=O)[C@@H](CCCCN)NC(=O)[C@H](CO)NC(=O)[C@@H](CSC2CC(=O)N(CCCCCC(=O)NN=C(CO)[C@]3(O)Cc4c(O)c5c(c(O)c4[C@@H](O[C@H]4C[C@H](N)[C@H](O)[C@H](C)O4)C3)C(=O)c3c(OC)cccc3C5=O)C2=O)NC(=O)[C@H](CCC(N)=O)NC(=O)[C@@H](CCCCN)NC1=O (stereo partly drawn) [CP1-DOX] (cyclo(Q[dC](X1)S[dK]S[dW][Pra][dK])),IC50,[1]; [9],3.5 ± 0.3 µM
same,E max (% inhibition),"[1]; MCF-7, 96 h incubation, MTT",81 ± 1 % inhibition
same,IC50,[2]; [10],2.8 ± 0.1 µM
same,E max (% inhibition),"[2]; NCI-H460, 48 h incubation, MTT",75 ± 1 % inhibition
same,cell internalization / localization by confocal microscopy,NCI/ADR-RES cells [3],mainly trapped in small compartments of the cytoplasm
same,stability (DOX release) at pH 5.0,[4],"drug release was observed after 72 h under these conditions, although part of the cyclic peptide conjugate survived after this time"
same,stability (DOX release) at physiological pH,[4],"much more stable at physiological pH, with a small release of the drug after 72 h"
same,E max (% inhibition),[5]; [11],22 ± 4 % inhibition
CCCCCCCCCCn1cc(C[C@@H]2NC(=O)[C@@H](Cc3c[nH]c4ccccc34)NC(=O)[C@H](CO)NC(=O)[C@@H](CCCCN)NC(=O)[C@H](CO)NC(=O)[C@@H](CSC3CC(=O)N(CCCCCC(=O)NN=C(CO)[C@]4(O)Cc5c(O)c6c(c(O)c5[C@@H](O[C@H]5C[C@H](N)[C@H](O)[C@H](C)O5)C4)C(=O)c4c(OC)cccc4C6=O)C3=O)NC(=O)[C@H](CCC(N)=O)NC(=O)[C@@H](CCCCN)NC2=O)nn1 (stereo partly drawn) [CP1T10-DOX],IC50,[1]; [9],3.4 ± 0.4 µM
same,E max (% inhibition),"[1]; MCF-7, 96 h incubation, MTT",89 ± 1 % inhibition
same,IC50,[2]; [10],3.1 ± 0.1 µM
same,E max (% inhibition),"[2]; NCI-H460, 48 h incubation, MTT",93 ± 1 % inhibition
same,cell internalization / localization by confocal microscopy,NCI/ADR-RES cells [3],cells with a colored nucleus
same,stability (DOX release) at pH 5.0,[4],the molecular ion corresponding to the drug is still very minor after this time
same,stability (DOX release) at physiological pH,[4],"much more stable at physiological pH, with a small release of the drug after 72 h"
same,IC50,[5]; [12],38.4 ± 0.7 µM
same,IC50,[5]; [13],10.8 ± 1.7 µM
same,E max (% inhibition),[5]; [11],84 ± 3 % inhibition
CCCCCCCCCCn1cc(C[C@@H]2NC(=O)[C@@H](Cc3c[nH]c4ccccc34)NC(=O)[C@H](CO)NC(=O)[C@@H](CCCCN)NC(=O)[C@H](CO)NC(=O)[C@@H](CS)NC(=O)[C@H](CCC(N)=O)NC(=O)[C@@H](CCCCN)NC2=O)nn1 [CP1T10],IC50,[1]; [9],78.8 ± 0.1 µM
same,E max (% inhibition),"[1]; MCF-7, 96 h incubation, MTT",59 ± 1 % inhibition
same,E max (% inhibition),"[2]; NCI-H460, 48 h incubation, MTT",28 ± 1 % inhibition
same,IC50,[5]; [12],68.9 ± 2.1 µM
same,E max (% inhibition),[5]; [14],70 ± 2 % inhibition
CCCCCCCCCCCCCCn1cc(C[C@@H]2NC(=O)[C@@H](Cc3c[nH]c4ccccc34)NC(=O)[C@H](CO)NC(=O)[C@@H](CCCCN)NC(=O)[C@H](CO)NC(=O)[C@@H](CSC3CC(=O)N(CCCCCC(=O)NN=C(CO)[C@]4(O)Cc5c(O)c6c(c(O)c5[C@@H](O[C@H]5C[C@H](N)[C@H](O)[C@H](C)O5)C4)C(=O)c4c(OC)cccc4C6=O)C3=O)NC(=O)[C@H](CCC(N)=O)NC(=O)[C@@H](CCCCN)NC2=O)nn1 (stereo partly drawn) [CP1T14-DOX],E max (% inhibition),[5]; [14],44 ± 4 % inhibition
same,IC50,[5]; [13],5.7 ± 2.7 µM
COc1cccc2c1C(=O)c1c(O)c3c(c(O)c1C2=O)C[C@@](O)(C(CO)=NNC(=O)CCCCCN1C(=O)CC(SC[C@H]2NC(=O)[C@H](CCC(N)=O)NC(=O)[C@@H](CCCCN)NC(=O)[C@H](Cc4cn(CCCCC(=O)NCCNc5ccc([N+](=O)[O-])c6nonc56)nn4)NC(=O)[C@@H](Cc4c[nH]c5ccccc45)NC(=O)[C@H](CO)NC(=O)[C@@H](CCCCN)NC(=O)[C@H](CO)NC2=O)C1=O)C[C@@H]3O[C@H]1C[C@H](N)[C@H](O)[C@H](C)O1 (stereo partly drawn) [CP1T NBD -DOX],cell uptake,NCI/ADR-RES cells [6],56.34%
same,E max (% inhibition),[5]; [14],30 ± 3 % inhibition
same,IC50,[5]; [13],3.7 ± 0.2 µM
C#CC[C@@H]1NC(=O)[C@@H](Cc2c[nH]c3ccccc23)NC(=O)[C@H](CO)NC(=O)[C@@H](CCCCN)NC(=O)[C@H](CO)NC(=O)[C@@H](CS)NC(=O)[C@H](CCC(N)=O)NC(=O)[C@@H](CCCCN)NC1=O [CP1] (cyclo([Pra][dK]Q[dC]S[dK]S[dW])),IC50,[1]; 96 h,17.7 ± 0.3 µM
same,IC50,[2]; 48 h,37.9 ± 0.4 µM
same,IC50,[5]; 48 h,55.8 ± 0.7 µM
same,E max (% inhibition),[5]; [14],90 ± 1 % inhibition
C#CC[C@@H]1NC(=O)[C@@H](Cc2c[nH]c3ccccc23)NC(=O)[C@H](CO)NC(=O)[C@@H](CSC2CC(=O)N(CCCCCC(=O)NN=C(CO)[C@]3(O)Cc4c(O)c5c(c(O)c4[C@@H](O[C@H]4C[C@H](N)[C@H](O)[C@H](C)O4)C3)C(=O)c3c(OC)cccc3C5=O)C2=O)NC(=O)[C@H](CO)NC(=O)[C@@H](CCCNC(=N)N)NC(=O)[C@H](CCC(N)=O)NC(=O)[C@@H](CCCCN)NC1=O (stereo partly drawn) [CP2-DOX] (cyclo(Q[dR]S[dC](X1)S[dW][Pra][dK])),IC50,[1]; [9],1.8 ± 0.2 µM
same,E max (% inhibition),"[1]; MCF-7, 96 h incubation, MTT",80 ± 1 % inhibition
same,IC50,[2]; [10],2.9 ± 0.3 µM
same,E max (% inhibition),"[2]; NCI-H460, 48 h incubation, MTT",92 ± 1 % inhibition
same,cell internalization / localization by confocal microscopy,NCI/ADR-RES cells [3],minimum cell internalization
same,E max (% inhibition),[5]; [11],13 ± 1 % inhibition
CCCCCCCCCCn1cc(C[C@@H]2NC(=O)[C@@H](Cc3c[nH]c4ccccc34)NC(=O)[C@H](CO)NC(=O)[C@@H](CSC3CC(=O)N(CCCCCC(=O)NN=C(CO)[C@]4(O)Cc5c(O)c6c(c(O)c5[C@@H](O[C@H]5C[C@H](N)[C@H](O)[C@H](C)O5)C4)C(=O)c4c(OC)cccc4C6=O)C3=O)NC(=O)[C@H](CO)NC(=O)[C@@H](CCCNC(=N)N)NC(=O)[C@H](CCC(N)=O)NC(=O)[C@@H](CCCCN)NC2=O)nn1 (stereo partly drawn) [CP2T10-DOX],IC50,[1]; [9],2.6 ± 0.3 µM
same,E max (% inhibition),"[1]; MCF-7, 96 h incubation, MTT",88 ± 1 % inhibition
same,IC50,[2]; [10],1.7 ± 0.1 µM
same,E max (% inhibition),"[2]; NCI-H460, 48 h incubation, MTT",93 ± 1 % inhibition
same,cell internalization / localization by confocal microscopy,NCI/ADR-RES cells [3],cells with a colored nucleus
same,IC50,[5]; [12],33.4 ± 0.3 µM
same,IC50,[5]; [13],21.8 ± 6.4 µM
same,E max (% inhibition),[5]; [11],64 ± 7 % inhibition
CCCCCCCCCCn1cc(C[C@@H]2NC(=O)[C@@H](Cc3c[nH]c4ccccc34)NC(=O)[C@H](CO)NC(=O)[C@@H](CS)NC(=O)[C@H](CO)NC(=O)[C@@H](CCCNC(=N)N)NC(=O)[C@H](CCC(N)=O)NC(=O)[C@@H](CCCCN)NC2=O)nn1 [CP2T10],IC50,[1]; 96 h,50.2 ± 0.6 µM
same,E max (% inhibition),"[1]; MCF-7, 96 h incubation, MTT",63 ± 1 % inhibition
same,E max (% inhibition),"[2]; NCI-H460, 48 h incubation, MTT",80 ± 2 % inhibition
same,IC50,[5]; 48 h,68.2 ± 4.6 µM
same,E max (% inhibition),[5]; [14],75 ± 2 % inhibition
CCCCCCCCCCCCCCn1cc(C[C@@H]2NC(=O)[C@@H](Cc3c[nH]c4ccccc34)NC(=O)[C@H](CO)NC(=O)[C@@H](CSC3CC(=O)N(CCCCCC(=O)NN=C(CO)[C@]4(O)Cc5c(O)c6c(c(O)c5[C@@H](O[C@H]5C[C@H](N)[C@H](O)[C@H](C)O5)C4)C(=O)c4c(OC)cccc4C6=O)C3=O)NC(=O)[C@H](CO)NC(=O)[C@@H](CCCNC(=N)N)NC(=O)[C@H](CCC(N)=O)NC(=O)[C@@H](CCCCN)NC2=O)nn1 (stereo partly drawn) [CP2T14-DOX],E max (% inhibition),[5]; [14],39 ± 9 % inhibition
same,IC50,[5]; [13],8.2 ± 0.8 µM
same,E max (% inhibition),[5]; [11],51 ± 4 % inhibition
same,E max (% inhibition),"[5]; NCI/ADR-RES, 72 h incubation, MTT, listed as CP2T 14 -DOX",good activity
C#CC[C@@H]1NC(=O)[C@@H](Cc2c[nH]c3ccccc23)NC(=O)[C@H](CO)NC(=O)[C@@H](CS)NC(=O)[C@H](CO)NC(=O)[C@@H](CCCNC(=N)N)NC(=O)[C@H](CCC(N)=O)NC(=O)[C@@H](CCCCN)NC1=O [CP2] (cyclo([Pra][dK]Q[dR]S[dC]S[dW])),E max (% inhibition),"[1]; MCF-7, 96 h incubation, MTT",48 ± 1 % inhibition
same,E max (% inhibition),"[2]; NCI-H460, 48 h incubation, MTT",8 ± 1 % inhibition
"N.N.[Cl][Pt][Cl] [Cisplatin, cisplatin, reference compound]",IC50,[1]; [9],7.8 ± 0.6 µM
same,E max (% inhibition),"[1]; MCF-7, 96 h incubation, MTT",78 ± 1 % inhibition
same,IC50,[2]; [10],5.1 ± 0.6 µM
same,E max (% inhibition),"[2]; NCI-H460, 48 h incubation, MTT",53 ± 1 % inhibition
same,IC50,[5]; [12],11.5 ± 0.6 µM
same,E max (% inhibition),[5]; [14],90 ± 1 % inhibition
"COc1cccc2c1C(=O)c1c(O)c3c(c(O)c1C2=O)C[C@@](O)(C(=O)CO)C[C@@H]3O[C@H]1C[C@H](N)[C@H](O)[C@H](C)O1 [DOX, doxorubicin]",IC50,"[1]; Homo sapiens, MCF7, MCF-7, 96 h incubation, MTT, 50% growth inhibition, calculated only if E max > 50%, read-out: IC50",0.82 ± 0.1 µM
same,E max (% inhibition),"[1]; MCF-7, 96 h incubation, MTT",86 ± 1 % inhibition
same,E max (% inhibition),"[2]; NCI-H460, 48 h incubation, MTT",56 ± 1 % inhibition
same,cell uptake,NCI/ADR-RES cells [6],21.56%
same,cytotoxicity in MRC-5,[7],significant cytotoxicity
same,cell internalization / localization by confocal microscopy,NCI/ADR-RES cells [3],no significant internalization
same,IC50,[8],9.3 ± 1.7 µM
same,E max (% inhibition),[5]; [14],36 ± 4 % inhibition
same,E max (% inhibition),"[5]; NCI/ADR-RES, 48 h incubation, MTT, listed as doxorubicin",36 % inhibition
